US20160138077A1, “MONITORING AND ASSESSING DEACETYLASE ENZYME ACTIVITY” (THE GENERAL HOSPITAL CORPORATION, priority 2013, published 2016)

How the values were obtained:
[1] = Stability of the enamide in HDAC buffer at pH 2-12 (HPLC/LCMS); type: physicochemical; details: HDAC assay buffer, room temperature, 20 μM
Protocol: HDAC buffer was adjusted to pH 2, 4, 6, 7, 8, 10 or 12 with […]. Compound 9 was dissolved in HDAC buffer at each pH to obtain 200 μL of a 20 μM solution. The solutions were kept at room temperature and 10 μL aliquots were analyzed at selected time points (t=0, 5, 10, 15, 30 and 60 minutes). Experiments were carried out in duplicate and the hydrolysis was monitored by HPLC and LCMS. HPLC measurements were made using a gradient elution system composed of water and acetonitrile with 0.01% ammonium formate at a flow rate of 1 mL/min on an Agilent Eclipse XDB-C18 chromatographic column (4.6 mm×150 mm). LCMS was performed with a gradient elution system composed of water and acetonitrile with 0.1% ammonium formate at a flow rate of 0.1 mL/min using an Agilent Eclipse XDB-C8 chromatographic column (5 μm particle size, 2.1 mm×150 mm).

Bovine serum albumin = Bovine serum albumin (Bos taurus, UniProt P02769); assay: HP-1 deacetylation and protein binding assay (gel filtration, fluorescence)
Chain of Bovine serum albumin (P02769 25-607): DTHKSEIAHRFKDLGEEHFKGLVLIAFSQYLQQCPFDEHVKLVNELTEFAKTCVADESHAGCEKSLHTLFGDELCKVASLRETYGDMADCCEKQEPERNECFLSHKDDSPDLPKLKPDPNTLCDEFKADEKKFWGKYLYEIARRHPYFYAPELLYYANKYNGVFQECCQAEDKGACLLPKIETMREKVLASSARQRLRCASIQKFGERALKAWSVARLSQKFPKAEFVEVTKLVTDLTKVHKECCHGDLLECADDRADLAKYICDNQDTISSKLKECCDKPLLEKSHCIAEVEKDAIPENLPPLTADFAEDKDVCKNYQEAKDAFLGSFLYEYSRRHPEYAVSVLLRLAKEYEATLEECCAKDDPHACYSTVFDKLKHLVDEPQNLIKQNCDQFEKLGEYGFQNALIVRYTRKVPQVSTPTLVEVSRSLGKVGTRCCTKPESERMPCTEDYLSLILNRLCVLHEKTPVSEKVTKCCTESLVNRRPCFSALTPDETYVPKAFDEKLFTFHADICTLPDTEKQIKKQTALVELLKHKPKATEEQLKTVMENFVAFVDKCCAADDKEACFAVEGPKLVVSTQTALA
Protocol: Solutions containing HP-1 (20 μM) in 30 μL HDAC buffer with 5% DMSO were incubated at 37° C. for four hours in the presence or absence of HDAC3 (3.6 μM). After incubation with HDAC3, NaCNBH3 (1.4 mM) or vehicle (H2O) and BSA (6 mg/mL) or vehicle (HDAC buffer), were added to the solutions prior to an additional incubation at 37° C. for two hours (all reactions were run in triplicate). Following the second incubation, the final solutions (50 μL) were added to G-25 columns (GE Healthcare, Buckinghamshire, UK) pre-equilibrated with milliQ water. The columns were then centrifuged at 700×g for 60 seconds before addition of milliQ water (50 μL). […] 75 μL of each fraction was transferred to a well in a 96-well, black, clear-bottom plate (Corning Incorporated, Corning, N.Y.) and the fluorescence was detected using an IVIS Spectrum (Caliper, Hopkinton, Mass.). To obtain the fluorescence signals, the 465 nm excitation filter, 530 nm emission filter, and a 5 second exposure were used. For analysis, the total photon flux over the area of each well was determined.
HP-1 deacetylation and protein binding assay. […] The fractions were transferred to a well in a 96-well, black, clear-bottom plate (Corning Incorporated, Corning, N.Y.) and the fluorescence was detected using an IVIS Spectrum (Caliper, Hopkinton, Mass.). […]

conversion of the enamide to the aldehyde ([1]; pH 2, 60 min)	conversion of the enamide to the aldehyde ([1]; pH 4-12, 60 min)	Structure (SMILES)	increase in protein-DHP-1 binding compared to controls (Bovine serum albumin; HP-1 (20 μM) incubated with HDAC3, then BSA with NaCNBH3 (Lanes F and H)) [fold]	increase in detected protein-DHP-1 binding relative to controls (Bovine serum albumin; HP-1 (20 μM) incubated with HDAC3, then BSA, no NaCNBH3 (lanes E and G)) [fold]
full conversion	no detectable conversion	CC(=O)NC=CCCCCNC(=O)c1ccccc1 [Compound 9]	–	–
–	–	O=CCCCCCNC(=O)CCCCCNc1ccc([N+](=O)[O-])c2nonc12 [DHP-1]	5	2
